US4559362A, “Immunopotentiator” (Zaidan Hojin Biseibutsu Kagaku Kenkyu Kai, priority 1982, dated 1985)

Tested on: IMC ascites tumor
Assay: Concomitant treatment with bleomycin and spermidine on IMC ascites tumor, survival
Format: in vivo, CDF1 mice
Protocol: The pharmacological effects of spermidine will be illustrated by reference to the following experimental examples, in which spermidine was administered as its phosphate dissolved in physiological saline.
(c) 1×10^6 IMC cancer cells were transplanted into CDF1 mice by intraperitoneal injection (Day 0). Bleomycin (5 mg/kg) was administered once daily for 5 consecutive days, and spermidine (5 mg/kg) was administered a total of 10 times on alternative days. The effect of concomitant treatment with spermidine and the anticancer drug was evaluated by considering the number of days that the mice survived.

bleomycin [reference compound]
Survival rate on Day 60 (bleomycin (5 mg/kg) alone): 0/10 | Survival period (bleomycin (5 mg/kg) alone, once daily for 5 consecutive days): 31.2 ± 9.4 days | Increase of life span (bleomycin (5 mg/kg) alone, control = 100): 176% | life span increase compared with the control group (bleomycin alone): 76%
